Activity calls are given as the source filed them. No cut-off for these calls is given here.
Legend:
[1] = target: Endothelin receptor type B (Sus scrofa, UniProt P35463); test: Displacement of [125I]endhothelin-3 from ETB receptor in porcine Cerebellum Membrane at 25 degC incubated for 3 hrs by radioligand competition binding assay; assay type: cell membranes
[2] = target: Adenosine receptor A2a (Homo sapiens) (UniProt P29274); test: Displacement of [3H]CGS 21680 from human recombinant Adenosine A2A receptor at 10 uM incubated for 120 mins by radiometric based scintillation counter assay relative to control
Adenosine receptor A2a (Homo sapiens), sequence (P29274 whole entry): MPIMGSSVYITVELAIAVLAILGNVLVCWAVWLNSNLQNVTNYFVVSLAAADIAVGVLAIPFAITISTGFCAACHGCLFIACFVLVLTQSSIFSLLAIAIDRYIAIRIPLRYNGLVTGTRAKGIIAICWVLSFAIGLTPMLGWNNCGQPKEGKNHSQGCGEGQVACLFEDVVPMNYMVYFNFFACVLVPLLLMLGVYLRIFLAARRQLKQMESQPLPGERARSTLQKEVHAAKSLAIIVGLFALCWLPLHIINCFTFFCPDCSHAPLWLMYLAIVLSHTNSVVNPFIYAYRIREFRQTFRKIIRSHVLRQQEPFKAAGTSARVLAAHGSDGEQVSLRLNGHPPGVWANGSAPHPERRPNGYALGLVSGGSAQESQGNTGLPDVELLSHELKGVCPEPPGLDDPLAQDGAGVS

Rattus norvegicus = species: Rattus norvegicus; test: Displacement of [3H]RX 821002 from rat brain […] at 10 uM incubated for 60 mins by radiometric based scintillation counter assay relative to control; assay type: tissue-based
[3] = target: Sodium-dependent noradrenaline transporter (Homo sapiens) (UniProt P23975); test: Inhibition of human norepinephrine expressed in CHO cells at 10 uM incubated for 180 mins by radiometric based scintillation counter assay relative to control; assay type: cell-based
Sodium-dependent noradrenaline transporter (Homo sapiens), sequence (P23975 whole entry): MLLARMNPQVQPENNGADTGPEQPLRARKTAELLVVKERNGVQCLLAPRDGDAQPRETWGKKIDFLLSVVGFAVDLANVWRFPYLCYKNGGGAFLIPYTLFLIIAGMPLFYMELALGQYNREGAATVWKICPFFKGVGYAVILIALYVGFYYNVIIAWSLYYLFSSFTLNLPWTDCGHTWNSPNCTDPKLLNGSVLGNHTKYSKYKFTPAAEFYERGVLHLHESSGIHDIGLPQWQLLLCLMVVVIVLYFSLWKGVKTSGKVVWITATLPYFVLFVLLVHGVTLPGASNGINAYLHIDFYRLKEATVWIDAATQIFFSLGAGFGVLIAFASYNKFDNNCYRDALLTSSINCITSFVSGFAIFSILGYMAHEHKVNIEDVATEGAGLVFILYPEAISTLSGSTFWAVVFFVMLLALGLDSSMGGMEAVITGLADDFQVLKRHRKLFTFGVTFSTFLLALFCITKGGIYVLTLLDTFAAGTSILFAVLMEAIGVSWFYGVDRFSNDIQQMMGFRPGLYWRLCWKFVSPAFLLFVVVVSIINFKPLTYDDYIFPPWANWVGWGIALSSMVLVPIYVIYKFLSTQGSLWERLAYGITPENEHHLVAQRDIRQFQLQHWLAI

[4] = target: Type-2 angiotensin II receptor (Homo sapiens) (UniProt P50052); test: Displacement of [125I]CGP 42112A from human recombinant angiotensin AT2 receptor at 10 uM incubated for 240 mins by radiometric based scintillation counter assay relative to control
[5] = target: B2 bradykinin receptor (Homo sapiens) (UniProt P30411); test: Displacement of [3H]bradykinin from human recombinant Bradykinin B2 receptor at 10 uM incubated for 60 mins by radiometric based scintillation counter assay relative to control
Homo sapiens [6] = species: Homo sapiens; test: Displacement of [125I]hCGRPalpha from calcitonin gene-related peptide (unknown origin) at 10 uM incubated for 90 mins by radiometric based scintillation counter assay relative to control
[7] = target: Cannabinoid receptor 2 (Homo sapiens) (UniProt P34972); test: Displacement of [3H]WIN 55212-2 from human recombinant cannabinoid CB2 receptor at 10 uM incubated for 120 mins by radiometric based scintillation counter assay relative to control
[8] = target: D(4) dopamine receptor (Homo sapiens) (UniProt P21917); test: Displacement of [3H]methyl-spiperone from human recombinant dopamine D4 receptor at 10 uM incubated for 60 mins by radiometric based scintillation counter assay relative to control
Mus musculus [9] = species: Mus musculus; test: Displacement of [125I]PDGF BB from mouse platlet-derived growth factor receptor at 10 uM incubated for 180 mins by radiometric based scintillation counter assay relative to control
[10] = target: Tumor necrosis factor receptor superfamily member 1A (Homo sapiens) (UniProt P19438); test: Displacement of [125I]TNF-alpha from human tumor necrosis factor-alpha at 10 uM incubated for 120 mins by radiometric based scintillation counter assay relative to control
[11] = target: Melatonin receptor type 1A (Homo sapiens) (UniProt P48039); test: Displacement of [125I]2-iodomelatonin from human recombinant melatonin ML1 receptor at 10 uM incubated for 240 mins by radiometric based scintillation counter assay relative to control
Melatonin receptor type 1A (Homo sapiens), sequence (P48039 whole entry): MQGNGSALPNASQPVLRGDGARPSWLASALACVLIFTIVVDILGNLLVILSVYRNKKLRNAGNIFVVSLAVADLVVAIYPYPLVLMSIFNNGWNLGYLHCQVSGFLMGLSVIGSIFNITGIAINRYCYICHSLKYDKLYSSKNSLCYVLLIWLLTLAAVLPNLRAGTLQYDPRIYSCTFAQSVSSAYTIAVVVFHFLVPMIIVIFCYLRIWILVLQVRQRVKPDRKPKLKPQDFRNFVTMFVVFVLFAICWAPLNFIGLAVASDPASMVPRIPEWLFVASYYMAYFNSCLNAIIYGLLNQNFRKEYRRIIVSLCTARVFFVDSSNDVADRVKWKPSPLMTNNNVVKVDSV

[12] = target: Substance-P receptor (Homo sapiens) (UniProt P25103); test: Displacement of [125I]-Substance P LYS3 from human Neurokinin-1 receptor at 10 uM incubated for 30 mins by radiometric based scintillation counter assay relative to control
Substance-P receptor (Homo sapiens), sequence (P25103 whole entry): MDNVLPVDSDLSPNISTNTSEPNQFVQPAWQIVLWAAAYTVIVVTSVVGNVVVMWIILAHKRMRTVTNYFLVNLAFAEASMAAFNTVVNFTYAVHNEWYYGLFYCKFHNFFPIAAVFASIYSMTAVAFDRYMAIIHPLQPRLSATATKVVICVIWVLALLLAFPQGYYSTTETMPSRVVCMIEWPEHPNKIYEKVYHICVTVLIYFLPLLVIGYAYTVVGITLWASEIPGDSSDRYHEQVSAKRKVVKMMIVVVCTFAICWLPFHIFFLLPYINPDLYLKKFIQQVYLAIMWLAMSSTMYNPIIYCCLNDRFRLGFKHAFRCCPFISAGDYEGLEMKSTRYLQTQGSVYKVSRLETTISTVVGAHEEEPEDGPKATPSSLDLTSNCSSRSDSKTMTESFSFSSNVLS

[13] = target: Substance-K receptor (Homo sapiens) (UniProt P21452); test: Displacement of [125I]NKA from human recombinant Neurokinin A receptor at 10 uM incubated for 60 mins by radiometric based scintillation counter assay relative to control
Substance-K receptor (Homo sapiens), sequence (P21452 whole entry): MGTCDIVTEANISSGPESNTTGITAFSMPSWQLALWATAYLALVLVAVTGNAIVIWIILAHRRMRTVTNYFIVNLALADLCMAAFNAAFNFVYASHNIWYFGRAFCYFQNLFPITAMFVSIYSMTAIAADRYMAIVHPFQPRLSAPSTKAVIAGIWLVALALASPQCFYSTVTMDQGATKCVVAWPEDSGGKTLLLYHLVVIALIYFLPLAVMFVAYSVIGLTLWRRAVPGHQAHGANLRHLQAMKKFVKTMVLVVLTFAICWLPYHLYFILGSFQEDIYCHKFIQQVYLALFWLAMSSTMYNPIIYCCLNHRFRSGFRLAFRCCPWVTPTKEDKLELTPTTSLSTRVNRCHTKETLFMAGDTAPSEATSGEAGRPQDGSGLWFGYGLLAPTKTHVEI

[14] = target: Mu-type opioid receptor (Homo sapiens) (UniProt P35372); test: Displacement of [3H]DAMGO from human recombinant mu-Opioid receptor at 10 uM incubated for 120 mins by radiometric based scintillation counter assay relative to control
Mu-type opioid receptor (Homo sapiens), sequence (P35372 whole entry): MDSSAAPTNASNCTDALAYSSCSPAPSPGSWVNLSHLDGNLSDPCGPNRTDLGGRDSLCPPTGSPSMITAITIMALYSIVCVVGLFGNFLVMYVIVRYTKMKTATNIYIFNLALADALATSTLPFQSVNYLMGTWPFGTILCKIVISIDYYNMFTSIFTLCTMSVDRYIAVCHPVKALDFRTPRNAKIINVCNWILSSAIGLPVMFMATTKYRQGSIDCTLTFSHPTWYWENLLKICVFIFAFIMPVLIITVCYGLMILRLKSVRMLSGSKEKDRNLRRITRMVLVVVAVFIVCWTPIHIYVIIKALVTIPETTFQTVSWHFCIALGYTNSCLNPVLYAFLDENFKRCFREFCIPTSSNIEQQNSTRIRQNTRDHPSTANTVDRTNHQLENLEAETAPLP

[15] = target: 5-hydroxytryptamine receptor 1B (Homo sapiens) (UniProt P28222); test: Displacement of [3H]GR125743 from human recombinant 5-Hydroxytryptamine 1B at 10 uM incubated for 60 mins by radiometric based scintillation counter assay relative to control
5-hydroxytryptamine receptor 1B (Homo sapiens), sequence (P28222 whole entry): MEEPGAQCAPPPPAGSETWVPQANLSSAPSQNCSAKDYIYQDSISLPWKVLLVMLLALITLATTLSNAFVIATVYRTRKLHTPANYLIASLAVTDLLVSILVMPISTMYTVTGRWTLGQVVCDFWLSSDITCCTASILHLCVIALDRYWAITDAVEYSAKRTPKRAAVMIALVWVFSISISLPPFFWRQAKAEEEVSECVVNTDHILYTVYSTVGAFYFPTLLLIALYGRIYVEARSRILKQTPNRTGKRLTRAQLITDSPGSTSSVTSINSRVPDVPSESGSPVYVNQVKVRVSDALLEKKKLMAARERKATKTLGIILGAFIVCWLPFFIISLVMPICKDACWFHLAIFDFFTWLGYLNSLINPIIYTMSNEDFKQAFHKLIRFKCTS

[16] = target: 5-hydroxytryptamine receptor 6 (Homo sapiens) (UniProt P50406); test: Displacement of [3H]LSD from human recombinant 5-Hydroxytryptamine 6 at 10 uM incubated for 120 mins by radiometric based scintillation counter assay relative to control
5-hydroxytryptamine receptor 6 (Homo sapiens), sequence (P50406 whole entry): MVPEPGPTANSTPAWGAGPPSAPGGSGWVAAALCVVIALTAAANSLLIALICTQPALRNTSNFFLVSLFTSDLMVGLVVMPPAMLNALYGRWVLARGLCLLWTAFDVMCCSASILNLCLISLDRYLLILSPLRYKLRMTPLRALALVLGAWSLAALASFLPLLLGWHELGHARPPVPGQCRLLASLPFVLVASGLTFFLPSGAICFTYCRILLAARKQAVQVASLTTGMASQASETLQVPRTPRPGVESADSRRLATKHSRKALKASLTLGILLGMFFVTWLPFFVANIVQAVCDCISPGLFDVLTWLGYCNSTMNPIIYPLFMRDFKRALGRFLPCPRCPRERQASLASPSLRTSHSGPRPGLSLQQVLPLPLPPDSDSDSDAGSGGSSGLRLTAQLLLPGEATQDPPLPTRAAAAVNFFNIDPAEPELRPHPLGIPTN

Mus musculus [17] = species: Mus musculus; test: Displacement of [125I]Tyr11-somatostatin-14 from mouse Somatostatin receptor at 10 uM incubated for 60 mins by radiometric based scintillation counter assay relative to control
[18] = target: Vasopressin V1a receptor (Homo sapiens) (UniProt P37288); test: Displacement of [3H]AVP from human recombinant Vasopressin V1a receptor at 10 uM incubated for 60 mins by radiometric based scintillation counter assay relative to control
Vasopressin V1a receptor (Homo sapiens), sequence (P37288 whole entry, looked up): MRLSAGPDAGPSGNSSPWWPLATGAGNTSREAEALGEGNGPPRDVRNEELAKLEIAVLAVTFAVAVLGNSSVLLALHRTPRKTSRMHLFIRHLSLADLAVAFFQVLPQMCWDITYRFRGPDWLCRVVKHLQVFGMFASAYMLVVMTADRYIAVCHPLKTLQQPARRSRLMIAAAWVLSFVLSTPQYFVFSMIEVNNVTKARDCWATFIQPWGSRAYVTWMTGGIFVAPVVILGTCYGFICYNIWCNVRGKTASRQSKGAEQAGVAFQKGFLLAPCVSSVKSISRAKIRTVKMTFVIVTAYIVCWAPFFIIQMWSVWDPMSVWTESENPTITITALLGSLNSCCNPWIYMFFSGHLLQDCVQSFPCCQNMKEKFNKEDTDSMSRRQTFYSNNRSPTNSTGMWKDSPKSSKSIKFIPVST

[19] = target: Vasopressin V2 receptor (Homo sapiens) (UniProt P30518); test: Displacement of [3H]AVP from human recombinant Vasopressin V2 receptor at 10 uM incubated for 120 mins by radiometric based scintillation counter assay relative to control
Homo sapiens [20] = species: Homo sapiens; test: Inhibition of L-type Ca2+ channel (unknown origin) at 10 uM by radioligand binding assay relative to control
[21] = target: Endothelin receptor type B (Oryctolagus cuniculus) (UniProt Q9N0W7); test: Antagonist activity to ETB receptor in rabbit pulmonary artery assessed as induction of vessel ring contraction preincubated for 15 mins; assay type: functional, tissue-based
Endothelin receptor type B (Oryctolagus cuniculus), sequence (Q9N0W7 whole entry): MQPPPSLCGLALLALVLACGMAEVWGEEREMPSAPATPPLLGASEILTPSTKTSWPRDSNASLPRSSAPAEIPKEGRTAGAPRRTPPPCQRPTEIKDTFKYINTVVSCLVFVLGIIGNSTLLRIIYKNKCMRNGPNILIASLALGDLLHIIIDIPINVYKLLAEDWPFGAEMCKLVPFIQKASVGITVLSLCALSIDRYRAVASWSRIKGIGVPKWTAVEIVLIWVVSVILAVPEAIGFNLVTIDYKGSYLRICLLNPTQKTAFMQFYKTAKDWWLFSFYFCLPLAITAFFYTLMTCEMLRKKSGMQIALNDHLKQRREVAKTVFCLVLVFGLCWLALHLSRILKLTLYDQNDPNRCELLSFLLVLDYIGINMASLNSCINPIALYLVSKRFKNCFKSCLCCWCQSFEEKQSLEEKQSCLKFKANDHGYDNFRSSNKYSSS

[22] = Half life in Sprague-Dawley rat at 5 mg/kg, iv administered for 12 hrs by HPLC analysis; assay type: ADME, organism-based; conditions: in vivo
[23] = Half life in Sprague-Dawley rat at 10 mg/kg, po administered for 12 hrs by HPLC analysis; assay type: ADME, organism-based; conditions: in vivo
[24] = Half life in Beagle dog at 5 mg/kg, po administered for 12 hrs by HPLC analysis; assay type: ADME, organism-based, Canis lupus familiaris; conditions: in vivo
[25] = Oral bioavailability in Sprague-Dawley rat at 10 mg/kg administered for 12 hrs by HPLC analysis; assay type: ADME, organism-based; conditions: in vivo
[26] = Oral bioavailability in cynomolgus monkey at 5 mg/kg administered for 12 hrs by HPLC analysis; assay type: ADME, organism-based, Macaca fascicularis; conditions: in vivo
[27] = target: T1, Endothelin-1 receptor (Rattus norvegicus) (UniProt P26684); test: In vivo antagonist activity to ETA receptor in endothelin-1 induced Sprague-Dawley rat assessed as inhibition of transient depressor response at 10 to 30 mg/kg, po administered for 4 hrs; assay type: functional, organism-based; conditions: dose 10-30 mg/kg
T1 sequence (whole entry): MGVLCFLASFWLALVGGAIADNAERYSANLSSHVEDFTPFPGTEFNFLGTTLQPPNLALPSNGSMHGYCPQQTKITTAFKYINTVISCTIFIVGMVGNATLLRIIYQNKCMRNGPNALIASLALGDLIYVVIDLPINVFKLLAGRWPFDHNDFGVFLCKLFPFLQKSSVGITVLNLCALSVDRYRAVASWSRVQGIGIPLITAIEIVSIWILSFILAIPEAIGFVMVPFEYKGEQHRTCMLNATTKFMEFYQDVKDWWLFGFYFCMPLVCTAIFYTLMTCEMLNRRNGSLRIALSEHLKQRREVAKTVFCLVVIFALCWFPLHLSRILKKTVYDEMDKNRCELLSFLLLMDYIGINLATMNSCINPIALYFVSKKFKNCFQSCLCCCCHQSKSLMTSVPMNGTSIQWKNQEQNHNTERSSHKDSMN

[28] = tested on: Glutamate receptor ionotropic NMDA (PCP site); test: Inhibition of PCP receptor (unknown origin) at 10 uM by radioligand binding assay relative to control; conditions: Homo sapiens

Endothelin receptor type B, sequence (P35463 whole entry): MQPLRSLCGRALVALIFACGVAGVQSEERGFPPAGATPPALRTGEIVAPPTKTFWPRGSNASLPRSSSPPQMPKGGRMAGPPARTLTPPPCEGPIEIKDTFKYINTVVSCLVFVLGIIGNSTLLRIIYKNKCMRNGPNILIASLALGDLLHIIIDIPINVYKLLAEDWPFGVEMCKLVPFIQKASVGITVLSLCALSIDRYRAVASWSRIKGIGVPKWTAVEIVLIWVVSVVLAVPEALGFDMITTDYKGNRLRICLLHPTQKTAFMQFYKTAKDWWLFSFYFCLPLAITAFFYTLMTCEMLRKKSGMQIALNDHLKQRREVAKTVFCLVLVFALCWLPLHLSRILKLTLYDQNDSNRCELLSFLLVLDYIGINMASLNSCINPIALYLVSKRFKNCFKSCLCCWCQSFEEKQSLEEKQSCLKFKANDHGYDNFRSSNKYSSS

SMILES: CCCCN(CCCC)C(=O)CN1[C@H](c2cc(OC)c3c(c2)OCO3)C[C@@H](C(=O)O)[C@@H]1CC(C)(C)CCC
- IC50 [1]: 16.7 µM
- inhibition [2]: < 10%
- inhibition (Rattus norvegicus): 18%
- inhibition [3]: < 10%
- inhibition [4]: < 10%
- inhibition [5]: < 10%
- inhibition (Homo sapiens [6]): < 10%
- inhibition [7]: 11%
- inhibition [8]: < 10%
- inhibition (Mus musculus [9]): < 10%
- inhibition [10]: < 10%
- inhibition [11]: 12%
- inhibition [12]: < 10%
- inhibition [13]: < 10%
- inhibition [14]: 17%
- inhibition [15]: < 10%
- inhibition [16]: < 10%
- inhibition (Mus musculus [17]): < 10%
- inhibition [18]: < 10%
- inhibition [19]: < 10%
- inhibition (Homo sapiens [20]): 29%
- Activity [21]: inactive
- half-life [22]: 1.6 h
- half-life [23]: 2.5 h
- half-life [24]: 3.3 h
- bioavailability [25]: 47.7%
- bioavailability [26]: 18.1%
- Activity [27]: inactive
- inhibition [28]: < 10%
